Laboratory results: patent publication US6248739A, “Quinolinecarboxamides as antiviral agents” (Pharmacia & Upjohn Company, priority 1999, dated 2001)
Where two headings read alike, the source gives them in different places.

What was measured:
HCMV polymerase = molecular target: T1, HCMV polymerase (Human cytomegalovirus, UniProt P08546); test: biochemical
T1 construct: made in house; host or cells: recombinant baculovirus-infected SF-9 insect cells
Outline: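 Scintillation proximity assay with baculovirus/SF-9-expressed HCMV polymerase, 90 nM ³H-dTTP and 6 nM biotinylated poly(dA)-oligo(dT) in HEPES pH 7.5/KCl/MgCl2/BSA, ±2 mM CHAPS, 25 or 37 °C, 30 min for HCMV. Modified version: compounds diluted in 100% DMSO, 4.5 mM DTT added. IC50 from linear regression.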

HSV polymerase = HSV polymerase (Human herpesvirus 1, UniProt P04293); test: HSV polymerase assay (Table 1); assay type: biochemical
VZV polymerase = VZV polymerase (Varicella-zoster virus, UniProt P09252); test: VZV polymerase assay (Table 1); assay type: biochemical
[1] = HCMV polymerase, SPA, modified assay: compounds in 100% DMSO, 4.5 mM DTT

VZV polymerase, sequence (P09252 whole entry): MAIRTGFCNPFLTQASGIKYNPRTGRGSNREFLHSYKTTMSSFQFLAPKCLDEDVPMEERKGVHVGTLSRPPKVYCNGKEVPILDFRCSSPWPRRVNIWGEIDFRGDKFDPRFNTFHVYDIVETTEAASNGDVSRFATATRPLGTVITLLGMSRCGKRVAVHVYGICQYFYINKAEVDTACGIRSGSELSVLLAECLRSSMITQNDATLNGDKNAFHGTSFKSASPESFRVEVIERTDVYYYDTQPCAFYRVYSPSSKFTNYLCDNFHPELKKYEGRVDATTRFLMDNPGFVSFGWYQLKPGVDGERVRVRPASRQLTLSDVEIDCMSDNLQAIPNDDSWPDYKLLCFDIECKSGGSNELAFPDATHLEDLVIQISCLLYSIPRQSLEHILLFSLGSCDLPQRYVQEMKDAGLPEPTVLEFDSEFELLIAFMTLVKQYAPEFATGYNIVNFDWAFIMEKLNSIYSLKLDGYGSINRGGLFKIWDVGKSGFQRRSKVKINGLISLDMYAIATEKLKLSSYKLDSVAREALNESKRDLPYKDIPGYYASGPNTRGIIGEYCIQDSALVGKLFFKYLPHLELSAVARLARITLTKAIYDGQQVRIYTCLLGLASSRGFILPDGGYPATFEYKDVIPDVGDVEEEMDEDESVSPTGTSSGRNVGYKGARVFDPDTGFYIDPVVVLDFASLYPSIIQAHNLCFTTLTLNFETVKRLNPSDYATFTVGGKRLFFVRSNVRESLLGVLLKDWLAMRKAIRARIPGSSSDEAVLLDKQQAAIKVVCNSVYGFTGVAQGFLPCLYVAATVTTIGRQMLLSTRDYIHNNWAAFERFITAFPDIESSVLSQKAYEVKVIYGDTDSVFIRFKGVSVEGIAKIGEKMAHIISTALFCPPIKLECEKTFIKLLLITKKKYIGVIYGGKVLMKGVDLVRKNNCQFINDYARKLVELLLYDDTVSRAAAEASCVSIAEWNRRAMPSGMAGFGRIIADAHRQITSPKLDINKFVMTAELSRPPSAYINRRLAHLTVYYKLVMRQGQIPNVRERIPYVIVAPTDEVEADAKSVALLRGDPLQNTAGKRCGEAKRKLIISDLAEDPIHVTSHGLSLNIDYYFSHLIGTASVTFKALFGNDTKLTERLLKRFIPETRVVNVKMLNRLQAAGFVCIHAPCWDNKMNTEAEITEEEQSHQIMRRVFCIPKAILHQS
HSV polymerase, sequence (P04293 whole entry): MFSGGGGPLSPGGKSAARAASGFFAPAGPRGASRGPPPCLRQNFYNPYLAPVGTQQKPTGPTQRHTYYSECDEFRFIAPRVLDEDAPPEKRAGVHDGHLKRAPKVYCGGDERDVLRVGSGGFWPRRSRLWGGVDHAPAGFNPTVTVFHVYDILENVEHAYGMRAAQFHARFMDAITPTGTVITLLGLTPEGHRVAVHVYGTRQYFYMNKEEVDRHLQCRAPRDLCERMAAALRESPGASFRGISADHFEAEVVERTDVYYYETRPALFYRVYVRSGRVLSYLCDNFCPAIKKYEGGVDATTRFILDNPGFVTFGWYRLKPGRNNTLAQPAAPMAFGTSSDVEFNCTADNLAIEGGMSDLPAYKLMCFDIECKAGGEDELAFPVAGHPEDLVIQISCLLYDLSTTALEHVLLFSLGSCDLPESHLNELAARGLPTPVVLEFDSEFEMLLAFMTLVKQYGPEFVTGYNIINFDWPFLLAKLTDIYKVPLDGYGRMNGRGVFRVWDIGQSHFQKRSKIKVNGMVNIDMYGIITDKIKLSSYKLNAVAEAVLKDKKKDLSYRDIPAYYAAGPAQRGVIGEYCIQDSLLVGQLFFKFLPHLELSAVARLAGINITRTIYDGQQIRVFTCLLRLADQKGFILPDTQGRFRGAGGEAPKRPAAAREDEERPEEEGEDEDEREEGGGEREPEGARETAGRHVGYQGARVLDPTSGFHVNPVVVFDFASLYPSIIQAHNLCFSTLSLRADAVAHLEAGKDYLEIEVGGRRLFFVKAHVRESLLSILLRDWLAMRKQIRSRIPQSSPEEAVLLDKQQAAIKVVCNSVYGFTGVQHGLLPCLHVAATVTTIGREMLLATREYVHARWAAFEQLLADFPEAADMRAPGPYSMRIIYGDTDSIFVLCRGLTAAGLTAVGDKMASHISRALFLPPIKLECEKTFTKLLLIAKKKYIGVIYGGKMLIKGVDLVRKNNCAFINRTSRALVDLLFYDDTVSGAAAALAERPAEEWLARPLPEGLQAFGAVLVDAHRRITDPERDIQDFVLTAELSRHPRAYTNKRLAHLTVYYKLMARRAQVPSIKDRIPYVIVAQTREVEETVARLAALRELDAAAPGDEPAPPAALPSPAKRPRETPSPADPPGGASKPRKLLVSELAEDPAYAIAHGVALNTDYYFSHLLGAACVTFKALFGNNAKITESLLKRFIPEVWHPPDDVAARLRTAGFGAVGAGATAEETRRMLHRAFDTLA
T1 sequence (P08546 whole entry): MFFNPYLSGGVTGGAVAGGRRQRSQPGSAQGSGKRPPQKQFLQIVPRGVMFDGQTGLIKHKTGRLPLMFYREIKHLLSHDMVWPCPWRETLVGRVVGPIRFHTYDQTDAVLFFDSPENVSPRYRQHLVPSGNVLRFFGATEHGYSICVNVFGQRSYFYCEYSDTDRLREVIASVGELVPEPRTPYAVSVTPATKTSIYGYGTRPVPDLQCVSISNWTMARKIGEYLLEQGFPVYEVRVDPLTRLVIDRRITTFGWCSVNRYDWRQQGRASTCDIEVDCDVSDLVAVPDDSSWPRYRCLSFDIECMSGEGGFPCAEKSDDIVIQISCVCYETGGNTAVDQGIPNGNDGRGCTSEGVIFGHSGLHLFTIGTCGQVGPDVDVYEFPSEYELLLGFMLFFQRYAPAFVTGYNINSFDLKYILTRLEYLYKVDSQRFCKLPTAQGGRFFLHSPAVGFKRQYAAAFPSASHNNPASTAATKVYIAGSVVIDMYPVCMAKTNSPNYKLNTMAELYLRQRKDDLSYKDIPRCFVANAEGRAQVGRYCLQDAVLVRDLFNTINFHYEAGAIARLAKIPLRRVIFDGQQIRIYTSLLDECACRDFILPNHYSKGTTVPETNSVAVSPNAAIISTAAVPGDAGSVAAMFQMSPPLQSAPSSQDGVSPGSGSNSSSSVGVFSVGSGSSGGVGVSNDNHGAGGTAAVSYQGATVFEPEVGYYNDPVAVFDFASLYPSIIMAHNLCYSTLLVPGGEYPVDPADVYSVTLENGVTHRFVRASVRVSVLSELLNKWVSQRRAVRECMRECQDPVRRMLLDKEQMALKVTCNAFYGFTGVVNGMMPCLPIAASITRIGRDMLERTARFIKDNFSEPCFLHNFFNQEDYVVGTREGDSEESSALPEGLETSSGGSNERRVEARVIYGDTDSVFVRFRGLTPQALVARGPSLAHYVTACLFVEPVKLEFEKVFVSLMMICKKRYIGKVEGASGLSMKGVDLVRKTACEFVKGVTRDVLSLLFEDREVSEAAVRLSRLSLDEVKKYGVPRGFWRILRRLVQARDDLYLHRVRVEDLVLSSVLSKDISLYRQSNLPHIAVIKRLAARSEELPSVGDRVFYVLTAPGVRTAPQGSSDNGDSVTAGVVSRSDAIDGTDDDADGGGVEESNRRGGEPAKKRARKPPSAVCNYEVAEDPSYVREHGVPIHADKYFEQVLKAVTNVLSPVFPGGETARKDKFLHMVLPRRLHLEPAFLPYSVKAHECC

CSCCCn1cc(C(=O)NCc2ccc(Cl)cc2)c(=O)c2cc(CN3CCOCC3)ccc21 [Example 61, N-(4-Chlorobenzyl)-1-[3-(methylsulfanyl)propyl]-6-(4-morpholinylmethyl)-4-oxo-1,4-dihydro-3-quinolinecarboxamide]
IC50 (HCMV polymerase; [1]): 1100 nM
IC50 (HSV polymerase): 900 nM
IC50 (VZV polymerase): 500 nM

O=C(NCc1ccc(Cl)cc1)c1cn(CCN2CCOCC2)c2ccc(C=CCO)cc2c1=O [Example 7, N-(4-Chlorobenzyl)-6-(3-hydroxy-1-propenyl)-1-[2-(4-morpholinyl)ethyl]-4-oxo-1,4-dihydro 3-quinolinecarboxamide]
IC50 (HCMV polymerase): 1000 nM
IC50 (HSV polymerase): 1100 nM
IC50 (VZV polymerase): 770 nM

O=C(NCc1ccc(Cl)cc1)c1cn(CCN2CCCCC2)c2ccc(C#CCO)cc2c1=O [Example 14, N-(4-Chlorobenzyl)-6-(3-hydroxy-1-propynyl)-1-[2-(1-piperidinyl)ethyl]-4-oxo-1,4-dihydro-3-quinolinecarboxamide]
IC50 (HCMV polymerase): 1300 nM
IC50 (HSV polymerase): 1200 nM
IC50 (VZV polymerase): 1100 nM

CC(C)N(CCn1cc(C(=O)NCc2ccc(Cl)cc2)c(=O)c2cc(C#CCO)ccc21)C(C)C [Example 17, N-(4-Chlorobenzyl)-1-[2-(diisopropylamino)ethyl]-6-(3-hydroxy-1-propynyl)-4-oxo-1,4-dihydro-3-quinolinecarboxamide]
IC50 (HCMV polymerase; [1]): 800 nM
IC50 (HSV polymerase): 2000 nM
IC50 (VZV polymerase): 1100 nM

C[S+]([O-])CCCn1cc(C(=O)NCc2ccc(Cl)cc2)c(=O)c2cc(CN3CCOCC3)ccc21 (stereo not drawn) [Example 65, N-(4-Chlorobenzyl)-1-[3-(methylsulfinyl)propyl]-6-(4-morpholinylmethyl)-4-oxo-1,4-dihydro-3-quinolinecarboxamide]
IC50 (HCMV polymerase; [1]): 900 nM
IC50 (HSV polymerase): 1000 nM
IC50 (VZV polymerase): 630 nM

COc1cc(C(O)CN(C)Cc2ccc3c(c2)c(=O)c(C(=O)NCc2ccc(Cl)cc2)cn3C)ccc1O (stereo not drawn) [Example 77, N-(4-Chlorobenzyl)-6-([(2-hydroxy-2-[4-hydroxy-3-methoxyphenyl]ethyl)[methyl]amino]methyl)-1-methyl-4-oxo-1,4-dihydro-3-quinolinecarboxamide]
IC50 (HCMV polymerase; [1]): 1300 nM
IC50 (HSV polymerase): 4100 nM
IC50 (VZV polymerase): 2100 nM

Cn1cc(C(=O)NCc2ccc(Cl)cc2)c(=O)c2cc(CN3CC(O)C3)ccc21 [Example 75, N-(4-Chlorobenzyl)-6-[(3-hydroxy-1-azetidinyl)methyl]-1-methyl-4-oxo-1,4-dihydro-3-quinolinecarboxamide]
IC50 (HCMV polymerase; [1]): 3300 nM
IC50 (HSV polymerase): 4400 nM
IC50 (VZV polymerase): 4000 nM

CN(Cc1ccc2c(c1)c(=O)c(C(=O)NCc1ccc(Cl)cc1)cn2C)CC(O)c1ccc(O)cc1 (stereo not drawn) [Example 74, N-(4-Chlorobenzyl)-6-([(2-hydroxy-2-[4-hydroxyphenyl]-ethyl) [methyl]amino]methyl)-1-methyl-4-oxo-1,4-dihydro-3-quinolinecarboxamide]
IC50 (HCMV polymerase; [1]): 890 nM
IC50 (HSV polymerase): 2800 nM
IC50 (VZV polymerase): 1600 nM

Cn1cc(C(=O)NCc2ccc(Cl)cc2)c(=O)c2cc(C#CCO)ccc21 [Example 31, N-(4-Chlorobenzyl)-6-(3-hydroxy-1-propynyl)-1-methyl-4-oxo-1,4-dihydro-3-quinolinecarboxamide]
IC50 (HCMV polymerase; [1]): 1100 nM
IC50 (HSV polymerase): 1300 nM
IC50 (VZV polymerase): 1000 nM

O=C(NCc1ccc(Cl)cc1)c1cn(CC#CCO)c2ccc(CN3CCOCC3)cc2c1=O [Example 62, N-(4-Chlorobenzyl)-1-(4-hydroxy-2-butynyl)-6-(4-morpholinylmethyl)-4-oxo-1,4-dihydro-3-quinolinecarboxamide]
IC50 (HCMV polymerase; [1]): 1300 nM
IC50 (HSV polymerase): 1100 nM
IC50 (VZV polymerase): 610 nM

O=C(NCc1ccc(Cl)cc1)c1cn(CSc2ccccc2)c2ccc(CN3CCOCC3)cc2c1=O [Example 76, N-(4-Chlorobenzyl)-6-(morpholinylmethyl)-4-oxo-1-[(phenylsulfanyl)methyl]-1,4-dihydro-3-quinolinecarboxamide]
IC50 (HCMV polymerase; [1]): 180 nM
IC50 (HSV polymerase): < 310 nM
IC50 (VZV polymerase): < 310 nM

O=C(NCc1ccc(Cl)cc1)c1cn(C2CC2)c2ccc(C#CCO)cc2c1=O [Example 25, N-(4-Chlorobenzyl)-1-cyclopropyl-6-(3-hydroxy-1-propynyl)-4-oxo-1,4-dihydro-3-quinolinecarboxamide]
IC50 (HCMV polymerase; [1]): 1600 nM
IC50 (HSV polymerase): 1600 nM
IC50 (VZV polymerase): 1500 nM

O=C(NCc1ccc(Cl)cc1)c1cn(CCOCCO)c2ccc(C#CCO)cc2c1=O [Example 55, N-(4-Chlorobenzyl)-1-[2-(2-hydroxyethoxy)ethyl]-6-(3-hydroxy-1-propynyl)-4-oxo-1,4-dihydro-3-quinolinecarboxamide]
IC50 (HCMV polymerase; [1]): 2300 nM
IC50 (HSV polymerase): 2400 nM
IC50 (VZV polymerase): 1400 nM

CCN(CC)CCn1cc(C(=O)NCc2ccc(Cl)cc2)c(=O)c2cc(C#CCO)ccc21 [Example 12, N-(4-Chlorobenzyl)-1-[2-(diethylamino)ethyl]-6-(3-hydroxy-1-propynyl)-4-oxo-1,4-dihydro-3-quinolinecarboxamide]
IC50 (HCMV polymerase; [1]): 2000 nM
IC50 (HSV polymerase): 3000 nM
IC50 (VZV polymerase): 1900 nM

Cn1cc(C(=O)NCc2ccc(Cl)cc2)c(=O)c2cc(CCCO)cc(OCCO)c21 [Example 4]
IC50 (HCMV polymerase; [1]): 600 nM
IC50 (HSV polymerase): 1000 nM
IC50 (VZV polymerase): 1200 nM

O=C(NCc1ccc(Cl)cc1)c1cn(C2CC2)c2ccc(CCCO)cc2c1=O [Example 26, N-(4-Chlorobenzyl)-1-cyclopropyl-6-(3-hydroxypropyl)-4-oxo-1,4-dihydro-3-quinolinecarboxamide]
IC50 (HCMV polymerase; [1]): 530 nM
IC50 (HSV polymerase): 780 nM
IC50 (VZV polymerase): 490 nM
